This passage reports EC50 and Emax results from US9834542B2, “LXR modulators” (BRISTOL-MYERS SQUIBB COMPANY, priority 2013, dated 2017).

By EC50 is commonly meant the concentration giving half of the maximal effect.

For the experiment, the target named is T1, LXRβ (Homo sapiens, UniProt P55055).
T1 construct: Co-transfection expression plasmids, comprising full-length LXRα (pCMX-h LXRα[…] or LXRβ (pCMX-hLXRβ)); expressed in transfected cells; host or cells: CV-1 African Green Monkey Kidney Cells
T1 sequence (P55055 1-460): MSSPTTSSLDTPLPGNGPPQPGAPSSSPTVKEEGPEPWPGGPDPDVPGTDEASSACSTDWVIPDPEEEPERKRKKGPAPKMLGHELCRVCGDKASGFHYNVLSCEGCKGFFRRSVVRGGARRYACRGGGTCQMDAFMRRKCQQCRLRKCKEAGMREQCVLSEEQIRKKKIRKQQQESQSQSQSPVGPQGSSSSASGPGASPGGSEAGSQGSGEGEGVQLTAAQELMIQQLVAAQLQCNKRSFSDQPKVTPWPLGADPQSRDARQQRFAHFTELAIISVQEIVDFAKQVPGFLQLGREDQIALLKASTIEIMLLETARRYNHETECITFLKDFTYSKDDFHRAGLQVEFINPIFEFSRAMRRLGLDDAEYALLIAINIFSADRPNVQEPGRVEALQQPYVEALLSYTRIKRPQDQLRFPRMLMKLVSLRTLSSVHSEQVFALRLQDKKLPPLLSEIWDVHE
T1 sequence (P19793 1-462 partner): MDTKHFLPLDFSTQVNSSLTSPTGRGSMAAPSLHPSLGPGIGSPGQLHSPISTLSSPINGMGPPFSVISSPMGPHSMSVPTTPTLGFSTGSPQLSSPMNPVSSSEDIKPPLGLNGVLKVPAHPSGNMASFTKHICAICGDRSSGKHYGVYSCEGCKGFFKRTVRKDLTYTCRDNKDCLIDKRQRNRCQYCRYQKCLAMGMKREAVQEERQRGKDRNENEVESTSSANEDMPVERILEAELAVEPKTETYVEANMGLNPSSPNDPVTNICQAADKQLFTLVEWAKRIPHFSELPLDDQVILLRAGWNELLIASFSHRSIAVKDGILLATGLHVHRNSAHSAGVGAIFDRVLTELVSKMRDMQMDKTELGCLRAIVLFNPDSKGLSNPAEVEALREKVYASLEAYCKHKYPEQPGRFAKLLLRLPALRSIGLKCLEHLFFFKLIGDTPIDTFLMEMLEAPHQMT
Briefly: Co-transfection assay (LXRE luciferase reporter), LXRβ. Type of experiment: cell-based. The settings on record: for EC50: CV-1 cells transfected with pCMX-hLXRβ and LXREx1-Tk-Luciferase, 20 hours incubation; for Emax: LXRβ co-transfection, relative to high control 1-(2,4-difluorobenzyl)-2-oxo-6-(4-phenoxyphenyl)-4-(trifluoromethyl)-1,2-dihydropyridine-3-carbonitrile, read-out: % Efficacy. Put shortly: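 CV-1 cells transiently co-transfected with full-length human LXRβ expression plasmid, LXREx1-Tk-luciferase reporter and β-galactosidase control, then exposed to compound for 20 h at 37 °C. Luciferase luminescence read; EC50 from 11-point, ½-log dose–response fit, efficacy relative to high-control agonist maximum.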
Background: Reporter assays use an easily measured gene product as a stand-in for the process of interest.

Consider `Cc1nc(C(F)(F)F)cn1-c1ccc(-c2cccc(S(C)(=O)=O)c2)cc1-n1nncc1-c1ccc(C(F)(F)F)cc1` [Example 62, 1-{3′-(methylsulfonyl)-4-[2-methyl-4-(trifluoromethyl)-1H-imidazol-1-yl]biphenyl-3-yl}-5-[4-(trifluoromethyl)phenyl]-1H-1,2,3-triazole], for which the half-maximal effective concentration (EC50) is 276 nM and the Emax turned out to be 91%.

Take `Cc1ccc(-c2cnnn2-c2cc(-c3cc(Cl)c(CO)c(S(C)(=O)=O)c3)ccc2-n2cc(C(F)(F)F)nc2C)cc1` [Example 63, {3-chloro-3′-[5-(4-methylphenyl)-1H-1,2,3-triazol-1-yl]-5-(methyllsulfonyl)-4′-[2-methyl-4-(trifluoromethyl)-1H-imidazol-1-yl]biphenyl-4-yl}methanol]: the EC50 was 281 nM and the Emax came to 68%.

As for `Cc1nc(C(F)(F)F)cn1-c1ccc(-c2cccc(S(C)(=O)=O)c2)cc1-n1nncc1-c1ccc(Cl)c(C(F)(F)F)c1` [Example 64, 5-[4-chloro-3-(trifluoromethyl)phenyl]-1-{3′-(methylsulfonyl)-4-[2-methyl-4-(trifluoromethyl)-1H-imidazol-1-yl]biphenyl-3-yl}-1H-1,2,3-triazole], the response was half-maximal at 289 nM (EC50) and the Emax came to 86%.

Turning to `Cc1nc(C(F)(F)F)cn1-c1ccc(-c2cccc(S(C)(=O)=O)c2)cc1-n1nncc1-c1ccc(OC(F)F)cc1` [Example 65, 5-{4-[(difluoromethyl)oxy]phenyl}-1-{3′-(methylsulfonyl)-4-[2-methyl-4-(trifluoromethyl)-1H-imidazol-1-yl]biphenyl-3-yl}-1H-1,2,3-triazole], it took 297 nM to reach a half-maximal effect (EC50) and the Emax was determined as 80%.

Turning to `Cc1nc(C(F)(F)F)cn1-c1ccc(-c2cccc(S(C)(=O)=O)c2)cc1-n1nncc1-c1ccc(Cl)cc1` [Example 66, 5-(4-chlorophenyl)-1-{3′-(methylsulfonyl)-4-[2-methyl-4-(trifluoromethyl)-1H-imidazol-1-yl]biphenyl-3-yl}-1H-1,2,3-triazole], the midpoint of the response, the EC50, lay at 306 nM and the Emax is 98%.

Regarding `Cc1nc(C(F)(F)F)cn1-c1ccc(-c2cc(F)c(CO)c(S(C)(=O)=O)c2)cc1-n1nncc1-c1ccc(Cl)cc1Cl` [Example 67, {3′-[5-(2,4-dichlorophenyl)-1H-1,2,3-triazol-1-yl]-3-fluoro-5-(methylsulfonyl)-4′-[2-methyl-4-(trifluoromcehyl)-1H-imidazol-1-yl]biphenyl-4-yl}methanol], the EC50 worked out at 127 nM and the Emax is 81%.

As for `Cc1nc(C(F)(F)F)cn1-c1ccc(-c2cccc(S(C)(=O)=O)c2)cc1-n1nncc1-c1ccc(OC(F)(F)F)cc1Cl` [Example 68, 5-{2-chloro-4-[(trifluoromethyl)oxy]phenyl}-1-{3′-(methylsulfonyl)-4-[2-methyl-4-(trifluoromethyl)-1H-imidazol-1-yl]biphenyl-3-yl}-1H-1,2,3-triazole], the EC50 is 307 nM and the Emax was 80%.

With `Cc1nc(C(F)(F)F)cn1-c1ccc(-c2cccc(S(C)(=O)=O)c2)cc1-n1nncc1-c1ccc(Cl)c(F)c1` [Example 69, 5-(4-chloro-3-fluorophenyl)-1-{3′-(methylsulfonyl)-4-[2-methyl-4-(trifluoromethyl)-1H-imidazol-1-yl]biphenyl-3-yl}-1H-1,2,3-triazole], the EC50 worked out at 341 nM and the Emax amounted to 113%.

On to `Cc1nc(C(F)(F)F)cn1-c1ccc(-c2cc(Cl)c(CO)c(S(C)(=O)=O)c2)cc1-n1nncc1-c1ccc(Cl)cc1` [Example 70, {3-chloro-3′-[5-(4-chlorophenyl)-1H-1,2,3-triazol-1-yl]-5-(methylsulfony)-4′-[2-methyl-4-(trifluoromethyl)-1H-imidazol-1-yl]biphenyl-4-yl}methanol], for which the EC50 stood at 361 nM and the Emax worked out at 40%.

`Cc1nc(C(F)(F)F)cn1-c1ccc(-c2cccc(S(C)(=O)=O)c2)cc1-n1nncc1-c1cc(F)c(F)c(F)c1` [Example 71, 1-{3′-(methylsulfonyl)-4-[2-methyl-4-(trifluoromethyl)-1H-imidazol-1-yl]biphenyl-3-yl}-5-(3,4,5-trifluorophenyl)-1H-1,2,3-triazole]: the midpoint of the response, the EC50, lay at 400 nM and the Emax came out at 105%.

With `Cc1nc(C(F)(F)F)cn1-c1ccc(-c2cccc(S(C)(=O)=O)c2)cc1-n1nncc1-c1ccc(C(C)C)cc1` [Example 72, 5-[4-(1-methylethyl)phenyl]-1-{3′-(methylsulfonyl)-4-[2-methyl-4-(trifluoromethyl)-1H-imidazol-1-yl]biphenyl-3-yl}-1H-1,2,3-triazole], the half-maximal effective concentration (EC50) is 473 nM and the Emax worked out at 80%.

On to `Cc1nc(C(F)(F)F)cn1-c1ccc(-c2cccc(S(C)(=O)=O)c2)cc1-n1nncc1-c1ccc2c(c1)OC(F)(F)O2` [Example 73, 5-(2,2-difluoro-1,3-benzodioxol-5-yl)-1-{3′-(methylsulfonyl)-4-[2-methyl-4-(trifluoromethyl)-1H-imidazol-1-yl]biphenyl-3-yl}-1H-1,2,3-triazole], for which the EC50 is 476 nM and the Emax stood at 99%.

`COc1ccc(-c2cnnn2-c2cc(-c3cccc(S(C)(=O)=O)c3)ccc2-n2cc(C(F)(F)F)nc2C)cc1C(F)(F)F` [Example 74, 5-[4-(methyloxy)-3-(trifluoromethyl)phenyl]-1-{3′-(methylsulfonyl)-4-[2-methyl-4-(trifluoromethyl)-1H-imidazol-1-yl]biphenyl-3-yl}-1H-1,2,3-triazole]: the concentration giving a half-maximal response (EC50) turned out to be 488 nM and the Emax turned out to be 72%.

In the case of `Cc1nc(C(F)(F)F)cn1-c1ccc(-c2cccc(S(C)(=O)=O)c2)cc1-n1nncc1-c1ccc(Cl)c(Cl)c1` [Example 75, 5-(3,4-dichlorophenyl)-1-{3′-(methylsulfonyl)-4-[2-methyl-4-(trifluoromethyl)-1H-imidazol-1-yl]biphenyl-3-yl}-1H-1,2,3-triazole], the midpoint of the response, the EC50, lay at 127 nM and the Emax amounted to 97%.

`Cc1nc(C(F)(F)F)cn1-c1ccc(-c2cccc(S(C)(=O)=O)c2)cc1-n1nncc1-c1ccc(Cl)cc1Cl` [Example 76, 5-(2,4-dichlorophenyl)-1-{3′-(methylsulfonyl)-4-[2-methyl-4-(trifluoromethyl)-1H-imidazol-1-yl]biphenyl-3-yl}-1H-1,2,3-triazole]: the midpoint of the response, the EC50, lay at 500 nM and the Emax came out at 69%.

As for `Cc1nc(C(F)(F)F)cn1-c1ccc(-c2cccc(S(C)(=O)=O)c2)cc1-n1nncc1-c1ccc(F)cn1` [Example 77, 5-fluoro-2-(1-{3′-(methylsulfonyl)-4-[2-methyl-4-(trifluoromethyl)-1H-imidazol-1-yl]biphenyl-3-yl}-1H-1,2,3-triazol-5-yl)pyridine], a half-maximal effect (EC50) was put at 3330 nM and the Emax was determined as 63%.

On to `Cc1nc(C(F)(F)F)cn1-c1ccc(-c2cc(F)c(CO)c(S(C)(=O)=O)c2)cc1-n1nncc1-c1ccc(OC(F)(F)F)c(Cl)c1` [Example 78, {3′-(5-{3-chloro-4-[(trifluoromethyl)oxy]phenyl}-1H-1,2,3-triazol-1-yl)-3-fluoro-5-(methylsulfonyl)-4′-[2-methyl-4-(trifluoromethyl)-1H-imidazol-1-yl]biphenyl-4-yl}methanol], for which the 50% effective concentration (EC50) was 102 nM and the Emax came to 94%.

As to `Cc1nc(C(F)(F)F)cn1-c1ccc(-c2cc(Cl)c(CO)c(S(C)(=O)=O)c2)cc1-n1nncc1-c1ccc(Cl)c(Cl)c1` [Example 79, {3-chloro-3′-[5-(3,4-dichlorophenyl)-1H-1,2,3-triazol-1-yl]-5-(methylsulfonyl)-4′-[2-methyl-4-(trifluoromethyl)-1H-imidazol-1-yl]biphenyl-4-yl}methanol], the EC50 was 227 nM and the Emax stood at 71%.

On to `Cc1nc(C(F)(F)F)cn1-c1ccc(-c2cccc(S(C)(=O)=O)c2)cc1-n1nncc1-c1ccc(C(F)(F)F)nc1` [Example 80, 5-(1-{3′-(methylsulfonyl)-4-[2-methyl-4-(trifluoromethyl)-1H-imidazol-1-yl]biphenyl-3-yl}-1H-1,2,3-triazol-5-yl)-2-(trifluoromethyl)pyridine], for which the half-maximal effective concentration (EC50) came out at 2690 nM and the Emax is 81%.
